Data from patent US20230337719A1, “ORAL PRODUCT” (Nicoventures Trading Limited, priority 2020, published 2023).

Columns and labels:
[1] = Modern Oral Intervention Trial: in-mouth glycoside degradation of spiked oral product, HPLC quantitation; assay type: in vivo, human
Procedure: Test Product - An oral product was prepared based on the commercial product sold by British American Tobacco as LYFT. The product included microcrystalline cellulose as a filler. […] The samples were then left at room temperature for one day to evaporate the ethanol.
Modern Oral Intervention Trial - Three healthy volunteers (female, 30-35 years of age) were asked to place the raspberry ketone spiked oral product under their upper lip, slightly to the side of the front teeth. After 30 sec, the product was moisturised by using the tip of the tongue. After 5 min, the product was disgorged into a centrifuge tube and any salivary enzymatic processes stopped by adding methanol (5 mL, p.A.) into the centrifuge tube. The procedure was repeated with intervention times of 0 (control sample), 10 and 20 min.
Sample Preparation - The centrifuge tubes containing the oral product and methanol (5 mL, p.A.) were vortexed for 10 sec and then placed on a plate shaker for 10 min to extract the remaining raspberry ketone glycoside. Afterwards, the tubes were centrifuged (13,200 rpm, 10 min) and the supernatant decanted into a safe lock tube (2 mL). The safe lock tube was centrifuged (13,200 rpm, 10 min) and an aliquot taken for analysis.
Quantitation of in-mouth glycoside degradation - Analysis was performed on a HPLC system (Knauer, Germany) equipped with a pump (AZURA P2.1S), auto-sampler (AZURA AS 6.1L) and diode-array UV/VIS detector (AZURA DAD 6.1L). Samples were loaded onto a reversed phase C18 column (Knauer, Eurospher II 100 C18, 3 mm × 100 mm) and separated with a 10 min gradient starting at 90% solvent mixture A (0.1% formic acid in water) in solvent mixture B (0.1% formic acid in methanol) at a flow rate of 0.5 mL/min changing to 30% A in 5 min and back to 90% A in 0.05 min holding for 4.5 min. The detection UV wavelength was set at 280 nm. Quantitation was performed by using an external calibration curve.
3 healthy volunteers were asked to place raspberry ketone spiked oral products under their upper lip according to a defined procedure and leave the pouch in their mouth for 5, 10 and 20 min. The remaining glycoside of the incubated samples as well as a control sample which was not incubated was extracted as described above and quantified by means of high pressure liquid chromatography and an external calibration curve.

[2] = glucosylation of furaneol by glycosyl transferase; assay type: biochemical, Vitis vinifera
Source text: At some instances, the present application refers to a glycosyl transferase being “capable of catalyzing” a certain reaction. For example, the present application may state that a glycosyl transferase is capable of catalyzing transfer of a sugar group from a sugar donor to a certain acceptor. This is meant to designate that under appropriate reaction conditions the rate at which the reaction product (in the example the adduct of the sugar group and the acceptor) is formed is at least 10-fold higher in the presence of said glycosyl transferase than the rate at which the reaction product is formed in a control experiment in the absence of said glycosyl transferase.

4-[4′-Hydroxy phenyl]-butan-2-one-4′-O-β-D-glucopyranoside [raspberry ketone glycoside]
amount of raspberry ketone remaining in product ([1]; 0 min (control sample, not incubated), tester P-01, product spiked with 1200 ppm raspberry ketone glycoside): 0.2 mg/mL
amount of raspberry ketone remaining in product ([1]; 0 min (control sample, not incubated), tester P-02, product spiked with 1200 ppm raspberry ketone glycoside): 0.2 mg/mL
amount of raspberry ketone remaining in product ([1]; 0 min (control sample, not incubated), tester P-03, product spiked with 1200 ppm raspberry ketone glycoside): 0.2 mg/mL
percentage release of raspberry ketone from glycoside ([1]; 0 min, tester P-01): 0%
percentage release of raspberry ketone from glycoside ([1]; 0 min, tester P-02): 0%
percentage release of raspberry ketone from glycoside ([1]; 0 min, tester P-03): 0%
amount of raspberry ketone remaining in product ([1]; 5 min in mouth, tester P-01): 0.15 mg/mL
percentage release of raspberry ketone from glycoside ([1]; 5 min in mouth, tester P-01): 25%
amount of raspberry ketone remaining in product ([1]; 5 min in mouth, tester P-02): 0.13 mg/mL
percentage release of raspberry ketone from glycoside ([1]; 5 min in mouth, tester P-02): 35%
amount of raspberry ketone remaining in product ([1]; 5 min in mouth, tester P-03): 0.16 mg/mL
percentage release of raspberry ketone from glycoside ([1]; 5 min in mouth, tester P-03): 20%
amount of raspberry ketone remaining in product ([1]; 10 min in mouth, tester P-01): 0.12 mg/mL
percentage release of raspberry ketone from glycoside ([1]; 10 min in mouth, tester P-01): 40%
amount of raspberry ketone remaining in product ([1]; 10 min in mouth, tester P-02): 0.10 mg/mL
percentage release of raspberry ketone from glycoside ([1]; 10 min in mouth, tester P-02): 50%
amount of raspberry ketone remaining in product ([1]; 10 min in mouth, tester P-03): 0.16 mg/mL
percentage release of raspberry ketone from glycoside ([1]; 10 min in mouth, tester P-03): 20%
amount of raspberry ketone remaining in product ([1]; 20 min in mouth, tester P-01): 0.06 mg/mL
percentage release of raspberry ketone from glycoside ([1]; 20 min in mouth, tester P-01): 70%
amount of raspberry ketone remaining in product ([1]; 20 min in mouth, tester P-02): 0.06 mg/mL
percentage release of raspberry ketone from glycoside ([1]; 20 min in mouth, tester P-02): 70%
amount of raspberry ketone remaining in product ([1]; 20 min in mouth, tester P-03): 0.13 mg/mL
percentage release of raspberry ketone from glycoside ([1]; 20 min in mouth, tester P-03): 35%
glycoside enzymatically cleaved ([1]; after 20 min in mouth incubation, across all panellists): 35 - 70%

B1: WGT14: terpene glycosyl transferase VvGT14 from Vitis vinifera (SEQ ID NO: 1) (protein, listed as Vitis vinifera)
chain: MGSMEKPHAVCIPYPAQGHINPMLKVAKLLHFRGFRITFVNTEFNHTRLLKAQGPNSLNGLPTFQFETIPDGLPPSNVDATQDIPSLCASTKKNCLAPFRRLLAKLNDRGPPVTCIFSDAVMSFTLDAAQELGIPDLLLWTASACGFMAYVQYRSLIDKGFTPLKDESYLTNGYLDTVVDWIPGMKGIRLKDLPSFIRTTDPDDIMLDFAMGELERARKASAIIFNTFDALEQEVLDAIAPMYPPIYTIGPLQLLPDQIHDSELKLIGSNLWKEEPECLKWLDSKEPNSVVYVNYGSITVMTPQQLIEFAWGLANSNQSFLWILRPDLVSGESAILPPEFVAETEDRGLLAGWCPQEQVLTHQAIGGFLTHNGWNSTIEGLCAGVPMICWPFFAEQQTNCRYCCTEWGVGMEIDSDVKRDEVAKLVRELMVGEKGKVMKKKTMEWKHRAEVATTGPDGSSYLNLEKIFEQVLL
capability of catalyzing glucosylation of furaneol [2]: capable of catalyzing glucosylation of furaneol
